Results from PubChem BioAssay AID2060489 (Molecular Pharmacology Branch, DTP, NCI, 2025).

System: 922993-354-T-J3-PDC complex spheroids, viability
Assay: Anticancer human tumor 922993-354-T-J3-PDC patient-derived endometrial carcinoma cell line growth inhibition [GQUAD]
Conditions: for IC50: curve of first compound; for viability, T/C: stronger effect = lower value
In short: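 Viability of tumor cells grown as complex spheroids with endothelial and stromal cells, exposed to drug combinations. Top concentration at or near clinical Cmax (else 10 microM), diluted in half-log increments.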

[1] = second compound 0.0316 µM, first compound 0.0316 µM
[2] = second compound 0.0316 µM, first compound 0.1 µM
[3] = second compound 0.0316 µM, first compound 0.316 µM
[4] = second compound 0.0316 µM, first compound 1 µM
[5] = second compound 0.0316 µM, first compound 3.16 µM
[6] = second compound 0.0316 µM, first compound 10 µM
[7] = second compound 0.1 µM, first compound 0.0316 µM
[8] = second compound 0.1 µM, first compound 0.1 µM
[9] = second compound 0.1 µM, first compound 0.316 µM
[10] = second compound 0.1 µM, first compound 1 µM
[11] = second compound 0.1 µM, first compound 3.16 µM
[12] = second compound 0.1 µM, first compound 10 µM
[13] = second compound 0.316 µM, first compound 0.0316 µM
[14] = second compound 0.316 µM, first compound 0.1 µM
[15] = second compound 0.316 µM, first compound 0.316 µM
[16] = second compound 0.316 µM, first compound 1 µM
[17] = second compound 0.316 µM, first compound 3.16 µM
[18] = second compound 0.316 µM, first compound 10 µM
[19] = second compound 1 µM, first compound 0.0316 µM
[20] = second compound 1 µM, first compound 0.1 µM
[21] = second compound 1 µM, first compound 0.316 µM
[22] = second compound 1 µM, first compound 1 µM
[23] = second compound 1 µM, first compound 3.16 µM
[24] = second compound 1 µM, first compound 10 µM
[25] = second compound 3.16 µM, first compound 0.0316 µM
[26] = second compound 3.16 µM, first compound 0.1 µM
[27] = second compound 3.16 µM, first compound 0.316 µM
[28] = second compound 3.16 µM, first compound 1 µM
[29] = second compound 3.16 µM, first compound 3.16 µM
[30] = second compound 3.16 µM, first compound 10 µM
[31] = second compound 10 µM, first compound 0.0316 µM
[32] = second compound 10 µM, first compound 0.1 µM
[33] = second compound 10 µM, first compound 0.316 µM
[34] = second compound 10 µM, first compound 1 µM
[35] = second compound 10 µM, first compound 3.16 µM
[36] = second compound 10 µM, first compound 10 µM
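Note: spheroids exposed to compounds for seven days.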
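Throughout, for viability, T/C: 100% = DMSO vehicle control viability.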

Structure (SMILES): CC(=O)O[C@H]1C(=O)[C@@]2(C)[C@H]([C@H](OC(=O)c3ccccc3)[C@]3(O)C[C@H](OC(=O)[C@H](O)[C@@H](NC(=O)c4ccccc4)c4ccccc4)C(C)=C1C3(C)C)[C@]1(OC(C)=O)CO[C@@H]1C[C@@H]2O + Cc1cnc(CNC(=O)c2c(=O)c3ccc(N4CCCN(C)CC4)nc3n3c2sc2ccccc23)cn1
- IC50 (second compound 0.0316 µM): 8750 nM
- IC50 (second compound 0.1 µM): 9750 nM
- IC50 (second compound 0.316 µM): < 31.6 nM
- IC50 (second compound 1 µM): < 31.6 nM
- IC50 (second compound 3.16 µM): < 31.6 nM
- IC50 (second compound 10 µM): < 31.6 nM
- viability, T/C [1]: 84.5%
- viability, T/C [2]: 79.3%
- viability, T/C [3]: 97.9%
- viability, T/C [4]: 83%
- viability, T/C [5]: 70.7%
- viability, T/C [6]: 47.3%
- viability, T/C [7]: 59.2%
- viability, T/C [8]: 86.9%
- viability, T/C [9]: 71.6%
- viability, T/C [10]: 59.3%
- viability, T/C [11]: 74.3%
- viability, T/C [12]: 49.5%
- viability, T/C [13]: 54.5%
- viability, T/C [14]: 49.6%
- viability, T/C [15]: 43.3%
- viability, T/C [16]: 52.7%
- viability, T/C [17]: 73.5%
- viability, T/C [18]: 53.3%
- viability, T/C [19]: 42.8%
- viability, T/C [20]: 58%
- viability, T/C [21]: 51.3%
- viability, T/C [22]: 46.5%
- viability, T/C [23]: 53%
- viability, T/C [24]: 46%
- viability, T/C [25]: 44.1%
- viability, T/C [26]: 50.6%
- viability, T/C [27]: 45.9%
- viability, T/C [28]: 45.1%
- viability, T/C [29]: 67.6%
- viability, T/C [30]: 60.3%
- viability, T/C [31]: 48.1%
- viability, T/C [32]: 45.4%
- viability, T/C [33]: 40.8%
- viability, T/C [34]: 40.2%
- viability, T/C [35]: 46.5%
- viability, T/C [36]: 46.4%

Structure (SMILES): C#Cc1c(F)ccc2cc(O)cc(-c3ncc4c(N5CC6CCC(C5)N6)nc(OCC56CCCN5CC(F)C6)nc4c3F)c12 (stereo unspecified) + CN(C)c1ccc(Nc2c3ccc(NC(=O)CCN4CCCC4)cc3nc3cc(NC(=O)CCN4CCCC4)ccc23)cc1
- IC50 (second compound 0.0316 µM): > 10000 nM
- IC50 (second compound 0.1 µM): > 10000 nM
- IC50 (second compound 0.316 µM): > 10000 nM
- IC50 (second compound 1 µM): > 10000 nM
- IC50 (second compound 3.16 µM): > 10000 nM
- IC50 (second compound 10 µM): > 10000 nM
- viability, T/C [1]: 93.8%
- viability, T/C [2]: 78.5%
- viability, T/C [3]: 97.2%
- viability, T/C [4]: 86.9%
- viability, T/C [5]: 95.3%
- viability, T/C [6]: 81.5%
- viability, T/C [7]: 99.4%
- viability, T/C [8]: 89.3%
- viability, T/C [9]: 94.3%
- viability, T/C [10]: 100%
- viability, T/C [11]: 82.3%
- viability, T/C [12]: 95.9%
- viability, T/C [13]: 71.9%
- viability, T/C [14]: 97.4%
- viability, T/C [15]: 97.7%
- viability, T/C [16]: 81%
- viability, T/C [17]: 87%
- viability, T/C [18]: 76%
- viability, T/C [19]: 71.4%
- viability, T/C [20]: 86.9%
- viability, T/C [21]: 88.7%
- viability, T/C [22]: 85.4%
- viability, T/C [23]: 84%
- viability, T/C [24]: 88.1%
- viability, T/C [25]: 116%
- viability, T/C [26]: 102%
- viability, T/C [27]: 129%
- viability, T/C [28]: 100%
- viability, T/C [29]: 108%
- viability, T/C [30]: 92.8%
- viability, T/C [31]: 88.3%
- viability, T/C [32]: 133%
- viability, T/C [33]: 108%
- viability, T/C [34]: 133%
- viability, T/C [35]: 104%
- viability, T/C [36]: 94.6%

Structure (SMILES): CC1COCCN1c1cc(-c2ccnn2C)c2ccnc(-c3ccn[nH]3)c2n1 (stereo unspecified) + CN(C)c1ccc(Nc2c3ccc(NC(=O)CCN4CCCC4)cc3nc3cc(NC(=O)CCN4CCCC4)ccc23)cc1
- IC50 (second compound 0.0316 µM): 260 nM
- IC50 (second compound 0.1 µM): 190 nM
- IC50 (second compound 0.316 µM): 175 nM
- IC50 (second compound 1 µM): 278 nM
- IC50 (second compound 3.16 µM): 176 nM
- IC50 (second compound 10 µM): 396 nM
- viability, T/C [1]: 98.4%
- viability, T/C [2]: 73.4%
- viability, T/C [3]: 50.3%
- viability, T/C [4]: 16.7%
- viability, T/C [5]: 18%
- viability, T/C [6]: 20%
- viability, T/C [7]: 110%
- viability, T/C [8]: 68.2%
- viability, T/C [9]: 36.1%
- viability, T/C [10]: 18.2%
- viability, T/C [11]: 20.2%
- viability, T/C [12]: 12.3%
- viability, T/C [13]: 105%
- viability, T/C [14]: 58.1%
- viability, T/C [15]: 46.9%
- viability, T/C [16]: 16.8%
- viability, T/C [17]: 16.5%
- viability, T/C [18]: 19.6%
- viability, T/C [19]: 84.8%
- viability, T/C [20]: 64.2%
- viability, T/C [21]: 54.2%
- viability, T/C [22]: 22.9%
- viability, T/C [23]: 19.1%
- viability, T/C [24]: 21.4%
- viability, T/C [25]: 119%
- viability, T/C [26]: 52.7%
- viability, T/C [27]: 54.3%
- viability, T/C [28]: 18.2%
- viability, T/C [29]: 21.3%
- viability, T/C [30]: 22.4%
- viability, T/C [31]: 130%
- viability, T/C [32]: 79.8%
- viability, T/C [33]: 65.2%
- viability, T/C [34]: 25.6%
- viability, T/C [35]: 21.2%
- viability, T/C [36]: 19.6%
